Source: article PMC6540285, “Evaluation of Protein Kinase Inhibitors with PLK4 Cross-Over Potential in a Pre-Clinical Model of Cancer” (International Journal of Molecular Sciences, 2019)

What was measured:
EPHB1 = EPHB1 (Homo sapiens, UniProt P54762); test: SelectScreen kinase profiling, ZLYTE; type: biochemical; conditions: EPHB1, 10 µM
FGR = FGR (Homo sapiens, UniProt P09769); test: SelectScreen kinase profiling, ZLYTE; type: biochemical
FGFR2 = FGFR2 (Homo sapiens, UniProt P21802); test: SelectScreen kinase profiling, ZLYTE; type: biochemical; conditions: FGFR2, 10 µM
LATS1 = LATS1 (Homo sapiens, UniProt O95835); test: SelectScreen kinase profiling, LanthaScreen binding; conditions: LATS1, 10 µM
MAP4K2 (GCK) = MAP4K2 (GCK) (Homo sapiens, UniProt Q12851); test: SelectScreen kinase profiling, ZLYTE; type: biochemical
AMPK (A2/B2/G2) = AMPK (A2/B2/G2) (Homo sapiens, UniProt P54646); test: SelectScreen kinase profiling, LanthaScreen binding
SIK3 = SIK3 (Homo sapiens, UniProt Q9Y2K2); test: as above; conditions: SIK3, 10 µM
PDK1 Direct = PDK1 Direct (Homo sapiens, UniProt O15530); test: SelectScreen kinase profiling, ZLYTE; type: biochemical
AKT1 (PKB alpha) = AKT1 (PKB alpha) (Homo sapiens, UniProt P31749); test: SelectScreen kinase profiling, ZLYTE; type: biochemical
MKNK2 (MNK2) = MKNK2 (MNK2) (Homo sapiens, UniProt Q9HBH9); test: SelectScreen kinase profiling, LanthaScreen binding
PRKACB (PRKAC beta) = PRKACB (PRKAC beta) (Homo sapiens, UniProt P22694); test: as above
NUAK2 = NUAK2 (Homo sapiens, UniProt Q9H093); test: as above; conditions: NUAK2, 10 µM
CDC42 BPG (MRCKG) = CDC42 BPG (MRCKG) (Homo sapiens, UniProt Q6DT37); test: SelectScreen kinase profiling, ZLYTE; type: biochemical
ACVR2B = ACVR2B (Homo sapiens, UniProt Q13705); test: SelectScreen kinase profiling, LanthaScreen binding
DDR2 T654M = DDR2 T654M (Homo sapiens, UniProt Q16832, T654M); test: as above
JAK2 = JAK2 (Homo sapiens, UniProt O60674); test: SelectScreen kinase profiling, ZLYTE; type: biochemical; conditions: JAK2, 10 µM
PIM2 = PIM2 (Homo sapiens, UniProt Q9P1W9); test: SelectScreen kinase profiling, ZLYTE; type: biochemical; conditions: PIM2, 10 µM
P450 2B6 = P450 2B6 (Homo sapiens, UniProt P20813)
PIM3 = PIM3 (Homo sapiens, UniProt Q86V86); test: SelectScreen kinase profiling, ZLYTE; type: biochemical; conditions: PIM3, 10 µM
RET V804E = RET V804E (Homo sapiens, UniProt P07949, V804E); test: SelectScreen kinase profiling, ZLYTE; type: biochemical
RPS6KB2 (p70S6Kb) = RPS6KB2 (p70S6Kb) (Homo sapiens, UniProt Q9UBS0); test: SelectScreen kinase profiling, ZLYTE; type: biochemical
BRAF V599E = BRAF V599E (Homo sapiens, UniProt P15056, V600E); test: SelectScreen kinase profiling, ZLYTE; type: biochemical
ABL1 = ABL1 (Homo sapiens, UniProt P00519); test: SelectScreen kinase profiling, ZLYTE; type: biochemical; conditions: ABL1, 10 µM
NEK7 = NEK7 (Homo sapiens, UniProt Q8TDX7); test: SelectScreen kinase profiling, ZLYTE; type: biochemical; conditions: NEK7, 10 µM
CDK4/cyclin D3 = CDK4/cyclin D3 (Homo sapiens, UniProt P11802); test: SelectScreen kinase profiling, Adapta; type: biochemical; conditions: CDK4/cyclin D3, 10 µM
PRKCB2 (PKC beta II) = PRKCB2 (PKC beta II) (Homo sapiens, UniProt P05771); test: SelectScreen kinase profiling, ZLYTE; type: biochemical
MET D1228H = MET D1228H (Homo sapiens, UniProt P08581, D1228H); test: SelectScreen kinase profiling, LanthaScreen binding
DYRK3 = DYRK3 (Homo sapiens, UniProt O43781); test: SelectScreen kinase profiling, ZLYTE; type: biochemical; conditions: DYRK3, 10 µM
EPHA5 = EPHA5 (Homo sapiens, UniProt P54756); test: SelectScreen kinase profiling, ZLYTE; type: biochemical; conditions: EPHA5, 10 µM
FLT3 D835Y = FLT3 D835Y (Homo sapiens, UniProt P36888, D835Y); test: SelectScreen kinase profiling, ZLYTE; type: biochemical
PAK6 = PAK6 (Homo sapiens, UniProt Q9NQU5); test: SelectScreen kinase profiling, ZLYTE; type: biochemical; conditions: PAK6, 10 µM
CDK9/cyclin T1 = CDK9/cyclin T1 (Homo sapiens, UniProt P50750); test: SelectScreen kinase profiling, Adapta; type: biochemical; conditions: CDK9/cyclin T1, 10 µM
NUAK1 (ARK5) = NUAK1 (ARK5) (Homo sapiens, UniProt O60285); test: SelectScreen kinase profiling, Adapta; type: biochemical
DDR2 = DDR2 (Homo sapiens, UniProt Q16832); test: SelectScreen kinase profiling, LanthaScreen binding; conditions: DDR2, 10 µM
MAP3K8 (COT) = MAP3K8 (COT) (Homo sapiens, UniProt P41279); test: SelectScreen kinase profiling, ZLYTE; type: biochemical
CYP3A4 = CYP3A4 (Homo sapiens, UniProt P08684); test: SelectScreen P450 Vivid biochemical assay; conditions: 10000nM
Sequence of CYP3A4 (P08684 whole entry): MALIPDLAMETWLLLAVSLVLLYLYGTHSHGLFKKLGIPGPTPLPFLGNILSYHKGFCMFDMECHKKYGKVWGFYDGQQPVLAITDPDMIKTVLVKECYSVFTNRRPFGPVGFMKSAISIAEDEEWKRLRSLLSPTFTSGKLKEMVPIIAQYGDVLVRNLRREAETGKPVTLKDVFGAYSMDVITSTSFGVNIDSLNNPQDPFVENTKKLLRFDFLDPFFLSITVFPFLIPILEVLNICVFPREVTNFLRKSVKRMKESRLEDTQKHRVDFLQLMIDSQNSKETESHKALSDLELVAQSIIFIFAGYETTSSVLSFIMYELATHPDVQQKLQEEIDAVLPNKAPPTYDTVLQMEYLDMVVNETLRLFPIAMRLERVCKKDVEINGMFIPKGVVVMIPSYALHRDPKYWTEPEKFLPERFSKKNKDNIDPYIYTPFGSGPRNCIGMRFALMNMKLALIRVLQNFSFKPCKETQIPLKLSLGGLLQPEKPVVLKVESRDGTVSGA

Sequence of EPHA5 (P54756 25-1037): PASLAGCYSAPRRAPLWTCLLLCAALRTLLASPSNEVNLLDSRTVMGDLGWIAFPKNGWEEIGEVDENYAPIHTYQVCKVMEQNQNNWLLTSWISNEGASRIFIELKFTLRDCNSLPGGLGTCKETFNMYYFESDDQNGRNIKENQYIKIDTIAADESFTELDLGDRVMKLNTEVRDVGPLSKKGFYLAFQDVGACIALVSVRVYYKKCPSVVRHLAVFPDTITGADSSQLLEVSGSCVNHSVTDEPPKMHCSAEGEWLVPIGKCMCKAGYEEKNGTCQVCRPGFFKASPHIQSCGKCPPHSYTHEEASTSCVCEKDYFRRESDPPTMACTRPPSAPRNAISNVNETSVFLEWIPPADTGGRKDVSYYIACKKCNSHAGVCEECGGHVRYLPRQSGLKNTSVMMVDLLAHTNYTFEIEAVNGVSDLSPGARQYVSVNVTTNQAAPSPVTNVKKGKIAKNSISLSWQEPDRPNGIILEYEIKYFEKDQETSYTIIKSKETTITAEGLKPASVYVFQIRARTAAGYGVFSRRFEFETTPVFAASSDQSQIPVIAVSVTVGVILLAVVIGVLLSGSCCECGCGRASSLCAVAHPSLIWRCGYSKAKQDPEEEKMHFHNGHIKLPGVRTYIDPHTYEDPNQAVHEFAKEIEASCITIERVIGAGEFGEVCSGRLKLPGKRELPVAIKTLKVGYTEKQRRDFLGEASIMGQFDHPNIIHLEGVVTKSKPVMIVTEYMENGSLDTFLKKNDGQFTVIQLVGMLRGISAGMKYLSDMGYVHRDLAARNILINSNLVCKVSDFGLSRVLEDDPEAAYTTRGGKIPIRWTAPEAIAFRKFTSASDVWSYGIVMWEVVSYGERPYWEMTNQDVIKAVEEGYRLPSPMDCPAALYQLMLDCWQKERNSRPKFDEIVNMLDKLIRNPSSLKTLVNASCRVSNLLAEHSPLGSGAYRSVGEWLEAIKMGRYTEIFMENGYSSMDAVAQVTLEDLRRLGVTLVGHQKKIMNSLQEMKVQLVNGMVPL
Sequence of NUAK1 (ARK5) (O60285 whole entry): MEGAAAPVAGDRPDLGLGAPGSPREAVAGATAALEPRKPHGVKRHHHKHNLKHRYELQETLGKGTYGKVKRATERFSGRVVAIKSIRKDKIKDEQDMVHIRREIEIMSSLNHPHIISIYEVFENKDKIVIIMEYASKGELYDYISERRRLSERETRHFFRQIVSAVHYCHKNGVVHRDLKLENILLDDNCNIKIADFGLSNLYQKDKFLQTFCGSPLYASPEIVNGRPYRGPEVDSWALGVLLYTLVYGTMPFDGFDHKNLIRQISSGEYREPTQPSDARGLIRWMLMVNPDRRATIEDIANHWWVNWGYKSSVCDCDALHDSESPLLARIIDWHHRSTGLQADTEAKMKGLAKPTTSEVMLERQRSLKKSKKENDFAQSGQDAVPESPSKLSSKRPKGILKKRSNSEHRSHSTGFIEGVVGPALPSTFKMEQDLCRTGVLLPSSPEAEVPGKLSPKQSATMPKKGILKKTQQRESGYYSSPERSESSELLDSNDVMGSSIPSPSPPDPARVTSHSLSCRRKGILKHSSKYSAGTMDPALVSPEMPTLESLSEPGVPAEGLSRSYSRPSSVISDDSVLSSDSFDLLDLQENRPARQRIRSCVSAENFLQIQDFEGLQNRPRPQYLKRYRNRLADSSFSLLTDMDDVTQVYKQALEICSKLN
Sequence of JAK2 (O60674 whole entry): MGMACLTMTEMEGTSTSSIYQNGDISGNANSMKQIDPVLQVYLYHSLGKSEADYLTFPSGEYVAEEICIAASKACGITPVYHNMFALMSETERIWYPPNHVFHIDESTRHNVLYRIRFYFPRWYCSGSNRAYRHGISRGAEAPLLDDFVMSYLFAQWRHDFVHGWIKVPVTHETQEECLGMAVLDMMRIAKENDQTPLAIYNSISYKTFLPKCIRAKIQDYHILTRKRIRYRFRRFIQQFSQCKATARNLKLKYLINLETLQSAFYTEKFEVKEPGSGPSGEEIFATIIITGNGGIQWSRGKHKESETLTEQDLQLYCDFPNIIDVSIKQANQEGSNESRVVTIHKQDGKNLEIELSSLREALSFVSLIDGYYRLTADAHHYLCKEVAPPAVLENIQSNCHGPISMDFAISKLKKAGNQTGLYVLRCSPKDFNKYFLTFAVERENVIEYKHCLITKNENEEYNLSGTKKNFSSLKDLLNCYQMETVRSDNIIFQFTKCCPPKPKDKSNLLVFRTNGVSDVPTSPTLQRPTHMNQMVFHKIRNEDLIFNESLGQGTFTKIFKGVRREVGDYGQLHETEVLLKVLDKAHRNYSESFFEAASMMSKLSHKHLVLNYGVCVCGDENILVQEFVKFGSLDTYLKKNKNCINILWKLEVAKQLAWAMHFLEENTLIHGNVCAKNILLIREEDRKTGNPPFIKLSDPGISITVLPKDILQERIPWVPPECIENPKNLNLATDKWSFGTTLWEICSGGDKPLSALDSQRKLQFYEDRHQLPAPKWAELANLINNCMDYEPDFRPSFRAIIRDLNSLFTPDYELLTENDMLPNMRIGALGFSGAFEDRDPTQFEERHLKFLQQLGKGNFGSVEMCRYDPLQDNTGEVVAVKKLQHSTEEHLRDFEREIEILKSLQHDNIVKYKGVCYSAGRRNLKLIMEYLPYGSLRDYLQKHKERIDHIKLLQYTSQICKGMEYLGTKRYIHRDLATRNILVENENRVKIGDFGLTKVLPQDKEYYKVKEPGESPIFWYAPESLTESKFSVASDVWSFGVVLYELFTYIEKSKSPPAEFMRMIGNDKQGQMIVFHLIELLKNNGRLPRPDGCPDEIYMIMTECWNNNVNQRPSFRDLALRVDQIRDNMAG
Sequence of AKT1 (PKB alpha) (P31749 whole entry): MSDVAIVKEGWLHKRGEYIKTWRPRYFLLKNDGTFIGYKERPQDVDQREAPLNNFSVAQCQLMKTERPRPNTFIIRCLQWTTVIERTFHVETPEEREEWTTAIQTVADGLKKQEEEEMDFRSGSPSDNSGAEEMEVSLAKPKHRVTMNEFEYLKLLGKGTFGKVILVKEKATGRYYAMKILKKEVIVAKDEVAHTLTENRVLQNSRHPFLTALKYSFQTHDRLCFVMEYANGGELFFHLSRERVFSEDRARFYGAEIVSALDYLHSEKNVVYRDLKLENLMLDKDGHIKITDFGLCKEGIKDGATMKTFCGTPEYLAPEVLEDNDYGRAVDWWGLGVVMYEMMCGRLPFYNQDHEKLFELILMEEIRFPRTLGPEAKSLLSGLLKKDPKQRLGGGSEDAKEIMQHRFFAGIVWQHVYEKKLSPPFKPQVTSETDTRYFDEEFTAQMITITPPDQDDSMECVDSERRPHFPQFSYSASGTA
Sequence of MAP4K2 (GCK) (Q12851 whole entry): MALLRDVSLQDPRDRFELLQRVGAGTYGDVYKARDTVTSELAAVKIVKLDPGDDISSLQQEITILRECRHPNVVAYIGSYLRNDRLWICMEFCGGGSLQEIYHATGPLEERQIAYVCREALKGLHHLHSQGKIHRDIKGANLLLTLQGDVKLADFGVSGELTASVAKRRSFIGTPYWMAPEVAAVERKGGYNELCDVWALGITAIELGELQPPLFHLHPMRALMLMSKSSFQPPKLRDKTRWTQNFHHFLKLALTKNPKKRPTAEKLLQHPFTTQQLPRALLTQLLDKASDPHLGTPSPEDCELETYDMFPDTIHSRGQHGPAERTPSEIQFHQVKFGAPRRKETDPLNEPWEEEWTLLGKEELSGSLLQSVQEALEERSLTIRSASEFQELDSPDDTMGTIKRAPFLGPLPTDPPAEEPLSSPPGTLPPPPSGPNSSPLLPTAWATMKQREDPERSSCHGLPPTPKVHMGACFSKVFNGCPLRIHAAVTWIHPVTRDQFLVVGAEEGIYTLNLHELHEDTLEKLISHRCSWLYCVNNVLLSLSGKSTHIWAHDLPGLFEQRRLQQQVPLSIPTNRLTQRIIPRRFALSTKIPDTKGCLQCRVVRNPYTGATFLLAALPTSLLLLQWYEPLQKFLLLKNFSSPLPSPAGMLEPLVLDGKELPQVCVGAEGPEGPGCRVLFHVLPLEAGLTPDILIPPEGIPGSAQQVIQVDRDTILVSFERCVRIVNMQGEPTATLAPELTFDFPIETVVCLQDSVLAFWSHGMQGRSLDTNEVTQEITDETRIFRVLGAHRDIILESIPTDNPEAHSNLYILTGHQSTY
Sequence of BRAF V599E (P15056 416-766 V600E limits assumed): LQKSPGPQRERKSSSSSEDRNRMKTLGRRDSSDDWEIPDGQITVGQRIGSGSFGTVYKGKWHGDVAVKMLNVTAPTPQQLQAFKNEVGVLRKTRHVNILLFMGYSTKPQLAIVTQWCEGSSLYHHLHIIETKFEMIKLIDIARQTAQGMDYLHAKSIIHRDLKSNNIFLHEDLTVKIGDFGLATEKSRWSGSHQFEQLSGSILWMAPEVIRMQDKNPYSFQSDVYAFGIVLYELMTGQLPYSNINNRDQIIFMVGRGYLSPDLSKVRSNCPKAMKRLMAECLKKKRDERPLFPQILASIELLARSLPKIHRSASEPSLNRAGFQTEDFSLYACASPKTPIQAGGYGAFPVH

SMILES: O=C(c1ccc(/C=C/c2n[nH]c3ccccc23)cc1)N1CCNCC1 [KW-2449]
- inhibition at 10 µM (EPHB1): 97%
- inhibition at 10 µM (FGR): 99%
- inhibition at 10 µM (FGFR2): 97%
- inhibition at 10 µM (LATS1): -17%
- inhibition at 10 µM (MAP4K2 (GCK)): 101%
- inhibition at 10 µM (AMPK (A2/B2/G2)): 78%
- inhibition at 10 µM (SIK3): -1%
- inhibition at 10 µM (PDK1 Direct): 103%
- inhibition at 10 µM (AKT1 (PKB alpha)): 24%
- inhibition at 10 µM (MKNK2 (MNK2)): 68%
- inhibition at 10 µM (PRKACB (PRKAC beta)): 48%
- inhibition at 10 µM (NUAK2): 62%
- inhibition at 10 µM (CDC42 BPG (MRCKG)): 68%
- inhibition at 10 µM (ACVR2B): 94%
- inhibition at 10 µM (DDR2 T654M): 84%
- inhibition at 10 µM (JAK2): 98%
- inhibition at 10 µM (PIM2): 8%
- IC50 (P450 2B6): 9.8 µM
- inhibition at 10 µM (PIM3): 2%
- inhibition at 10 µM (RET V804E): 94%
- inhibition at 10 µM (RPS6KB2 (p70S6Kb)): 37%
- inhibition at 10 µM (BRAF V599E): 60%
- inhibition at 10 µM (ABL1): 100%
- inhibition at 10 µM (NEK7): 7%
- inhibition at 10 µM (CDK4/cyclin D3): 83%
- inhibition at 10 µM (PRKCB2 (PKC beta II)): 71%
- inhibition at 10 µM (MET D1228H): 75%
- inhibition at 10 µM (DYRK3): 86%
- inhibition at 10 µM (EPHA5): 84%
- inhibition at 10 µM (FLT3 D835Y): 100%
- inhibition at 10 µM (PAK6): 60%
- inhibition at 10 µM (CDK9/cyclin T1): 82%
- inhibition at 10 µM (NUAK1 (ARK5)): 100%
- inhibition at 10 µM (DDR2): 53%
- inhibition at 10 µM (MAP3K8 (COT)): 54%
- % Inhibition 3A4 BOMCC (CYP3A4; substrate BOMCC): 63%
- % Inhibition 3A4 DBOMF (CYP3A4; substrate DBOMF): 46%
